# Results published in patent publication US11982671B2, “Identification of a T cell epitope of Prevotella copri that induces T cell responses in patients with rheumatoid arthritis” (priority 2016, dated 2024).
# B1: FLNA: recombinant human filamin A (Novusbio) (protein)
# chain: GAPGPGPADASKVVAKGLGLSKAYVGQKSSFTVDCSKAGNNMLLVGVHGPRTPCEEILVKHVGSRLYSVSYLLKDKGEYTLVVKWGDEHIPGSPYRVVVP
# B2: citrullinated FLNA: recombinant filamin A citrullinated in vitro with rhPAD-4 (protein)
# chain: B1 chain
# B3: GNS: recombinant human N-acetylglucosamine-6-sulfatase (Novoprotein) (protein)
# chain: VFGVAAGTRRPNVVLLLTDDQDEVLGGMTPLKKTKALIGEMGMTFSSAYVPSALCCPSRASILTGKYPHNHHVVNNTLEGNCSSKSWQKIQEPNTFPAILRSMCGYQTFFAGKYLNEYGAPDAGGLEHVPLGWSYWYALEKNSKYYNYTLSINGKARKHGENYSVDYLTDVLANVSLDFLDYKSNFEPFFMMIATPAPHSPWTAAPQYQKAFQNVFAPRNKNFNIHGTNKHWLIRQAKTPMTNSSIQFLDNAFRKRWQTLLSVDDLVEKLVKRLEFTGELNNTYIFYTSDNGYHTGQFSLPIDKRQLYEFDIKVPLLVRGPGIKPNQTSKMLVANIDLGPTILDIAGYDLNKTQMDGMSLLPILRGASNLTWRSDVLVEYQGEGRNVTDPTCPSLSPGVSQCFPDCVCEDAYNNTYACVRTMSALWNLQYCEFDDQEVFVEVYNLTADPDQITNIAKTIDPELLGKMNYRLMMLQSCSGPTCRTPGVFDPGYRFDPRLMFSNRGSVRTRRFSKHLL
# B4: citrullinated GNS: recombinant GNS citrullinated in vitro with rhPAD-4 (protein)
# chain: B3 chain
# What was measured:
# PBMC from RA patients [1] = experiment: IFN-γ/IL17 Double-Color ELISpot with GNS, FLNA and microbial peptides; type: cell-based, human; settings: 24 NORA patients, single peptide 1 μM
# Description: Enzyme-linked immunospot (ELISpot) T cell assay. A detailed description of the methods for isolation and identification of HLA-DR presented peptides is given in previous publications (19, 20). In the current study, all non-redundant HLA-DR-presented peptides identified from patient RA1 were synthesized (Mimotopes, Australia) and tested for reactivity in sets of 3 (1 μM of each peptide) with the patient's PBMC using IFN-γ ELISpot assays. […] For testing in larger numbers of patients and control subjects who would have a range of HLA-DR genotypes, the original peptides identified from the patient (shown in bold) and 3 additional promiscuous peptides that were predicted to bind>16 HLA-DR molecules were synthesized and HPLC-purified in the MGH Core Facility. The sequences of the GNS peptides were as follows: 47PNVVLLLTDDQDE59 (SEQ ID NO: 13), 222FEPFFMMIATPAPH235 (SEQ ID NO: 14), 451TYACVRTMSALWNLQ465 (SEQ ID NO: 15), 504NYRLMMLQSCSGPTC518 (SEQ ID NO: 16). The sequences of the FLNA peptides were as follows: 73DGLRLIALLEVLSQKK88 (SEQ ID NO: 17), 118SIKLVSIDSKAIVDG132 (SEQ ID NO: 18), 416VEVVIQDPMGQKG428 (SEQ ID NO: 19), 2446NPAEFVVNTSNAGAG2460 (SEQ ID NO: 20).
# To assess microbial sequence homology with the GNS peptide 222FEPFFMMIATPAPH235 (SEQ ID NO: 21), the following microbial peptides were tested: 231KKPFFMMVAMNPPH245 (SEQ ID NO: 22), which was derived from the arylsulfatase protein of Prevotella sp. (WP_062433009.1) and 247DVPFFMMWTTPLPH261 (SEQ ID NO: 23), derived from the N-acetylgalactosamine-6-sulfatase of Parabacteroides sp. (WP_046148720.1).
# To evaluate the microbial sequence homology for the FLNA peptide 2446NPAEFVVNTSNAGAG2460 (SEQ ID NO: 24), the following microbial peptides were tested: 133QGFVVKTANAGAL146 (SEQ ID NO: 25), which was derived from an uncharacterized protein of Prevotella sp. (WP_028897633.1) and 90ANFMINVSNAGAL103 (SEQ ID NO: 26), derived from an uncharacterized protein of Butyricimonas sp. (WP_065219401.1). The RA patients' PBMC were stimulated with the pool of peptides or single peptides, and analyzed for reactivity with a human IFN-γ/IL17 Double-Color ELISpot kit (Cellular Technology Limited). All peptides (1 μM) were tested in duplicate wells, as were positive (phytohemagglutinin) and negative (no antigen) control samples. After 5 days, cells were transferred to ELISpot plates coated with IFN-γ/IL17 antibodies, and incubated overnight. Images of wells were captured using ImmunoSpot series 3B analyzer, and spots were counted using ImmunoSpot software. A positive T cell response was defined as 3 standard deviations (SD) above the mean value of healthy control subjects.
# PBMC from RA patients [2] = experiment: IFN-γ/IL-17 ELISpot T cell assay with Pc-p27 peptides; type: cell-based, human
# Source text: Enzyme-linked immunospot (ELISpot) T cell assay. A detailed description of the methods for isolation and identification of HLA-DR presented peptides is given in Seward et al., 2011. In initial experiments in this study, one microbial peptide (^2KRIILILTVLLAMLGQVAY^20)(SEQ ID NO: 6) derived from a 27 kDa P. copri protein (WP_022121928.1) was identified from the PBMC of one RA patient. This P. copri peptide and 2 additional peptides from the same protein, which were predicted to be promiscuous T cell epitopes (^52DYRGYWTMRYQFDSATVS^69 (SEQ ID NO: 7), ^118EKINSLPTSSTGI^130 (SEQ ID NO: 8)), were synthesized and HPLC-purified in the Core Proteomics Laboratory at MGH. […] Cells were then transferred to Dual Color ELISpot plates coated with IFN-γ/IL17 antibodies (Cellular Technology Limited), and incubated overnight at 37° C. Images of wells were captured using ImmunoSpot series 3B analyzer, and spots were counted using ImmunoSpot software. A positive T cell response was defined as 3 standard deviations (SD) above the mean value of healthy subjects.
# [3] = system: serum IgG and IgA autoantibodies; experiment: ELISA for serum IgG and IgA anti-GNS and anti-FLNA autoantibodies; type: binding, human; settings: for patients with IgA antibody responses >3 SD above HC: 101 RA patients; for patients with IgG antibody responses >3 SD above HC: 101 RA patients (NORA and CRA), serum diluted 50-fold; for IgG antibody responses to citrullinated versus uncitrullinated protein: 46 RA patients, protein citrullinated in vitro with rhPAD4
# Description: ELISA for serum IgG and IgA anti-GNS and anti-FLNA autoantibodies. ELISA plates were coated with 0.5 μg/ml of recombinant human N-acetylglucosamine-6-sulfatase (Novoprotein, Summit, N.J.) or filamin A (Novusbio, Littleton, Colo.) overnight at 4° C. Subsequent incubations and washes were performed at room temperature. After washing with phosphate buffered saline with 0.05% Tween-20 (PBST), the plates were blocked with blocking buffer (5% nonfat dry milk in PBST) for one hour. Afterwards, 100 μl of each patient's serum sample (diluted 50-fold) was added in duplicate wells for 1.5 hours, followed by horseradish-peroxidase (HRP)-conjugated goat anti-human IgG (sc-2453, Santa Cruz Biotech) or HRP-conjugated goat anti-human IgA (Bio-Rad, Hercules, Calif.), and then TMB substrate (BD, San Diego, Calif.). For inter-plate standardization, 2 control samples were included with each assay.
# In vitro citrullination assay. Human recombinant N-acetylglucosamine-6-sulfatase (2 μg) or filamin A (2 μg) were incubated with rhPAD-4 (400 ng), generously provided by Maximilian Koenig from the laboratory of Felipe Andrade, in 1M Tris (pH 7.6) in presence of 200 mM CaCl2. A negative control reaction was performed substituting 200 mM CaCl2 with 200 mM EDTA. Incubation was performed at 37° C. for 3 hours. Protein citrullination was determined by anti-modified citrulline immunoblotting, according to the recommendations of the manufacturer (Millipore).
molecule,measurement,setting,value
"ANFMINVSNAGAL (Butyricimonas sp. Marseille-P2440) [Butyricimonas peptide, peptide from an uncharacterized protein of Butyricimonas sp]",patients with T cell reactivity >3SD above the mean values in HC,PBMC from RA patients [1],29%
"DVPFFMMWTTPLPH (Parabacteroides sp. HGS0025) [Parabacteroides peptide, peptide from N-acetylgalactosamine-6-sulfatase of Parabacteroides sp]",patients with T cell reactivity >3SD above the mean values in HC,PBMC from RA patients [1],25%
"FEPFFMMIATPAPH (listed as Homo sapiens) [GNS peptide, HLA-DR-presented self peptide from N-acetylglucosamine-6-sulfatase]",patients with T cell reactivity >3SD above the mean values in HC,PBMC from RA patients [1],33%
"KKPFFMMVAMNPPH (Prevotella sp. DNF00663) [Prevotella peptide, peptide from arylsulfatase protein of Prevotella sp., homologous to the GNS peptide]",patients with T cell reactivity >3SD above the mean values in HC,PBMC from RA patients [1],38%
KRIILILTVLLAMLGQVAY (listed as Prevotella copri) [Pc-p27 peptide 1],patients whose PBMC secreted IFN-γ >3 SD above the mean value of HC,"PBMC from RA patients [2]; 40 RA patients (39 NORA + RA1), peptide 1 μM, 5 days",42%
same,T cell reactivity of PBMC from Lyme arthritis patients,"PBMC from RA patients [2]; LA patients, peptide 1 μM",lacked reactivity
same,"patients with IFN-γ response, peptide with or without citrullination","PBMC from RA patients [2]; RA patients, FIG. 1D",44%
same,IFN-γ secreted by patient RA1 T cells relative to background,"PBMC from RA patients [2]; patient RA1 PBMC, peptide 1, 2 and 4 μM, background = no antigen",> 3 times background
NPAEFVVNTSNAGAG [FLNA peptide],patients with T cell reactivity >3SD above the mean values in HC,PBMC from RA patients [1],38%
"QGFVVKTANAGAL (Prevotella sp. HUN102) [corresponding Prevotella peptide, peptide from an uncharacterized protein of Prevotella sp., homologous to the FLNA peptide]",patients with T cell reactivity >3SD above the mean values in HC,PBMC from RA patients [1],42%
B1,patients with IgA antibody responses >3 SD above HC,[3],15%
same,patients with IgG antibody responses >3 SD above HC,[3],27%
B2,IgG antibody responses to citrullinated versus uncitrullinated protein,[3],not significantly different
B3,patients with IgA antibody responses >3 SD above HC,[3],16%
same,patients with IgG antibody responses >3 SD above HC,[3],32%
same,positive IgG antibody responses in patients with other diseases and healthy controls,"[3]; 106 patients with LA, SpA or CTD, 50 healthy control subjects",none
B4,IgG antibody responses to citrullinated versus uncitrullinated protein,[3],higher
